{"source": "paper PMC4620497", "about": "(Scientific Reports, 2015)", "key": {"[1]": {"molecular_target": "T1, ABL1(F317L)-phosphorylated (Homo sapiens, UniProt P00519, F317L)", "T1 construct": "purchased DiscoveRx KINOMEscan (Ambit Biosciences)", "assay": "KINOMEscan panel screen", "assay_type": "binding", "settings": "read-out: Percent Control(%)"}, "[2]": {"molecular_target": "T2, CDK3 (Homo sapiens, UniProt Q00526)", "T2 construct": "purchased DiscoveRx KINOMEscan (Ambit Biosciences)", "assay": "KINOMEscan panel screen", "assay_type": "binding", "settings": "read-out: Percent Control(%)"}, "[3]": {"molecular_target": "T3, CDK4-cyclinD1 (Homo sapiens, UniProt P11802)", "T3 construct": "purchased DiscoveRx KINOMEscan (Ambit Biosciences)", "assay": "KINOMEscan panel screen", "assay_type": "binding", "settings": "read-out: Percent Control(%)"}, "[4]": {"molecular_target": "T4, CDK8 (Homo sapiens, UniProt P49336)", "T4 construct": "purchased DiscoveRx KINOMEscan (Ambit Biosciences)", "assay": "KINOMEscan panel screen", "assay_type": "binding", "settings": "read-out: Percent Control(%)"}, "[5]": {"molecular_target": "T5, CDKL1 (Homo sapiens, UniProt Q00532)", "T5 construct": "purchased DiscoveRx KINOMEscan (Ambit Biosciences)", "assay": "KINOMEscan panel screen", "assay_type": "binding", "settings": "read-out: Percent Control(%)"}, "[6]": {"molecular_target": "T6, CSNK1D (Homo sapiens, UniProt P48730)", "T6 construct": "purchased DiscoveRx KINOMEscan (Ambit Biosciences)", "assay": "KINOMEscan panel screen", "assay_type": "binding", "settings": "read-out: Percent Control(%)"}, "[7]": {"molecular_target": "T7, CSNK2A2 (Homo sapiens, UniProt P19784)", "T7 construct": "purchased DiscoveRx KINOMEscan (Ambit Biosciences)", "assay": "KINOMEscan panel screen", "assay_type": "binding", "settings": "read-out: Percent Control(%)"}, "[8]": {"molecular_target": "T8, EGFR(L747-S752del, P753S) (Homo sapiens, UniProt P00533, DEL747-752/P753S)", "T8 construct": "purchased DiscoveRx KINOMEscan (Ambit Biosciences)", "T8 sequence (P00533 with tags, fused parts or gaps DEL747-752/P753S limits assumed)": "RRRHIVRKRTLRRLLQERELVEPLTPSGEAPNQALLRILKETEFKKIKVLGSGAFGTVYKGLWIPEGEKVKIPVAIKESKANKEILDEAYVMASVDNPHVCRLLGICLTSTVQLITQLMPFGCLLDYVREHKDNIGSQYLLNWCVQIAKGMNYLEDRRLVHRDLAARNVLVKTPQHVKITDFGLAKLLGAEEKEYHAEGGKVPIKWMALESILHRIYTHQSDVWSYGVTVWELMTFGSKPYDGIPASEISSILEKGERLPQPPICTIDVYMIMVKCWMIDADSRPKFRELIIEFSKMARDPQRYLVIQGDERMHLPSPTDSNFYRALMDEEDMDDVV", "assay": "KINOMEscan panel screen", "assay_type": "binding", "settings": "read-out: Percent Control(%)"}, "[9]": {"molecular_target": "T9, EPHA8 (Homo sapiens, UniProt P29322)", "T9 construct": "purchased DiscoveRx KINOMEscan (Ambit Biosciences)", "assay": "KINOMEscan panel screen", "assay_type": "binding", "settings": "read-out: Percent Control(%)"}, "[10]": {"molecular_target": "T10, GRK4 (Homo sapiens, UniProt P32298)", "T10 construct": "purchased DiscoveRx KINOMEscan (Ambit Biosciences)", "T10 sequence (P32298 whole entry)": "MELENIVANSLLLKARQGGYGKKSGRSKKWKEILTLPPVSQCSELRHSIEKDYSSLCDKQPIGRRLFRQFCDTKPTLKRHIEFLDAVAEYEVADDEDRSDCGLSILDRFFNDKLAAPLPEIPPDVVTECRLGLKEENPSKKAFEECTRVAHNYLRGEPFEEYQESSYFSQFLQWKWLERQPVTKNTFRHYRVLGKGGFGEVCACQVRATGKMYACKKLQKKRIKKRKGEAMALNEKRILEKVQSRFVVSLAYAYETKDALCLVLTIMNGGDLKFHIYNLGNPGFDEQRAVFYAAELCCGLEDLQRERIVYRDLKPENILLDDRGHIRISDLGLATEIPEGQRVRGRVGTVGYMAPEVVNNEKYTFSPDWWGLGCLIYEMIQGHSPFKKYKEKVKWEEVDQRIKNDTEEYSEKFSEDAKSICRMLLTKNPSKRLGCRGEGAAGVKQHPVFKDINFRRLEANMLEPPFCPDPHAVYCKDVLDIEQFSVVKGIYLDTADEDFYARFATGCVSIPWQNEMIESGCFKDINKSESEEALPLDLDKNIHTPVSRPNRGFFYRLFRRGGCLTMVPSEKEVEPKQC", "assay": "KINOMEscan panel screen", "assay_type": "binding", "settings": "read-out: Percent Control(%)"}, "[11]": {"molecular_target": "T11, IKK-beta (Homo sapiens, UniProt O14920)", "T11 construct": "purchased DiscoveRx KINOMEscan (Ambit Biosciences)", "assay": "KINOMEscan panel screen", "assay_type": "binding", "settings": "read-out: Percent Control(%)"}, "[12]": {"molecular_target": "T12, KIT (Homo sapiens, UniProt P10721)", "T12 construct": "DNA tag (qPCR read-out); purchased Ambit Biosciences (KINOMEscan service)", "assay": "KINOMEscan panel screen", "assay_type": "binding", "settings": "read-out: Percent Control(%)"}, "[13]": {"molecular_target": "T13, MEK5 (Homo sapiens, UniProt Q13163)", "T13 construct": "purchased DiscoveRx KINOMEscan (Ambit Biosciences)", "assay": "KINOMEscan panel screen", "assay_type": "binding", "settings": "read-out: Percent Control(%)"}, "[14]": {"molecular_target": "T14, NEK5 (Homo sapiens, UniProt Q6P3R8)", "T14 construct": "purchased DiscoveRx KINOMEscan (Ambit Biosciences)", "T14 sequence (Q6P3R8 whole entry)": "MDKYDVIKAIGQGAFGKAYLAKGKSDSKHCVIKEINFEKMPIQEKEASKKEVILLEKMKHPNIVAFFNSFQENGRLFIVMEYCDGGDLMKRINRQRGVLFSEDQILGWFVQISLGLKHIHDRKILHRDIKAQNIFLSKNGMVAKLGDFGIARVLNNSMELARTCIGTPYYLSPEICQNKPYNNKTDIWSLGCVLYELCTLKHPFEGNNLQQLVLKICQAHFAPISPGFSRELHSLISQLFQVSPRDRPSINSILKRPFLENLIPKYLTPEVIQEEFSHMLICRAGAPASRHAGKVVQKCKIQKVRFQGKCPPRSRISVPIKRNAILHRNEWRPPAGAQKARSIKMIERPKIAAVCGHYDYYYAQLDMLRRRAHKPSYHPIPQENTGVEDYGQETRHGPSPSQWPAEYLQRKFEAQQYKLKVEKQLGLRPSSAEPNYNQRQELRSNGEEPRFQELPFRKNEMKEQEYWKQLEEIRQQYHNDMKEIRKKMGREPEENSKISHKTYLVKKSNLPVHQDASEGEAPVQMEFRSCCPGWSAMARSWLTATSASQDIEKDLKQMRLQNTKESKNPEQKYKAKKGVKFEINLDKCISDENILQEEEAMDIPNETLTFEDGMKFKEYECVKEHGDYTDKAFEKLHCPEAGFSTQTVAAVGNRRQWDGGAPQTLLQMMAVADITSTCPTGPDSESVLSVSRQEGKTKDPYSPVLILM", "assay": "KINOMEscan panel screen", "assay_type": "binding", "settings": "read-out: Percent Control(%)"}, "[15]": {"molecular_target": "T15, NEK6 (Homo sapiens, UniProt Q9HC98)", "T15 construct": "purchased DiscoveRx KINOMEscan (Ambit Biosciences)", "T15 sequence (Q9HC98 whole entry)": "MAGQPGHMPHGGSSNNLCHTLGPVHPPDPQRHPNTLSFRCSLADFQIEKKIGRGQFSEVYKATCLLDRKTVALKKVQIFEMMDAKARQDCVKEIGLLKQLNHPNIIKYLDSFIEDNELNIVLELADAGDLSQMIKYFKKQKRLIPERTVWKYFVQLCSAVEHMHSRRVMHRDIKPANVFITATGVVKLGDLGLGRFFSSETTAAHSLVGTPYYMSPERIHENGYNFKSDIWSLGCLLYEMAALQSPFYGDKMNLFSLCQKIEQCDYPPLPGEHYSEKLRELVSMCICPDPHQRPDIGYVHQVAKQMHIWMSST", "assay": "KINOMEscan panel screen", "assay_type": "binding", "settings": "read-out: Percent Control(%)"}, "[16]": {"molecular_target": "T16, NIM1 (Homo sapiens, UniProt Q8IY84)", "T16 construct": "purchased DiscoveRx KINOMEscan (Ambit Biosciences)", "T16 sequence (Q8IY84 whole entry)": "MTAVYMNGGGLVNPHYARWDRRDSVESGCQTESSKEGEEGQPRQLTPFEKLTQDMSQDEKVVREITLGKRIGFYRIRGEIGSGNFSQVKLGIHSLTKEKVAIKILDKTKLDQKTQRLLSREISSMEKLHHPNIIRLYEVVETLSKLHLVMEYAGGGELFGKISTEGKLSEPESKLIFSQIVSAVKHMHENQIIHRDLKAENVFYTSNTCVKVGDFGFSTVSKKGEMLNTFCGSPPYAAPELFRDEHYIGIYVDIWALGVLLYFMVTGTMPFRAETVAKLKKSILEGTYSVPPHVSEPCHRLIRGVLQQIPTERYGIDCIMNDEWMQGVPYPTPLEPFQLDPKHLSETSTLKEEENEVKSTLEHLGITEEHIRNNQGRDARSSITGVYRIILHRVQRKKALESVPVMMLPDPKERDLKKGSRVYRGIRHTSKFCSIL", "assay": "KINOMEscan panel screen", "assay_type": "binding", "settings": "read-out: Percent Control(%)"}, "[17]": {"molecular_target": "T17, PAK7 (Homo sapiens, UniProt Q9P286)", "T17 construct": "purchased DiscoveRx KINOMEscan (Ambit Biosciences)", "T17 sequence (Q9P286 whole entry)": "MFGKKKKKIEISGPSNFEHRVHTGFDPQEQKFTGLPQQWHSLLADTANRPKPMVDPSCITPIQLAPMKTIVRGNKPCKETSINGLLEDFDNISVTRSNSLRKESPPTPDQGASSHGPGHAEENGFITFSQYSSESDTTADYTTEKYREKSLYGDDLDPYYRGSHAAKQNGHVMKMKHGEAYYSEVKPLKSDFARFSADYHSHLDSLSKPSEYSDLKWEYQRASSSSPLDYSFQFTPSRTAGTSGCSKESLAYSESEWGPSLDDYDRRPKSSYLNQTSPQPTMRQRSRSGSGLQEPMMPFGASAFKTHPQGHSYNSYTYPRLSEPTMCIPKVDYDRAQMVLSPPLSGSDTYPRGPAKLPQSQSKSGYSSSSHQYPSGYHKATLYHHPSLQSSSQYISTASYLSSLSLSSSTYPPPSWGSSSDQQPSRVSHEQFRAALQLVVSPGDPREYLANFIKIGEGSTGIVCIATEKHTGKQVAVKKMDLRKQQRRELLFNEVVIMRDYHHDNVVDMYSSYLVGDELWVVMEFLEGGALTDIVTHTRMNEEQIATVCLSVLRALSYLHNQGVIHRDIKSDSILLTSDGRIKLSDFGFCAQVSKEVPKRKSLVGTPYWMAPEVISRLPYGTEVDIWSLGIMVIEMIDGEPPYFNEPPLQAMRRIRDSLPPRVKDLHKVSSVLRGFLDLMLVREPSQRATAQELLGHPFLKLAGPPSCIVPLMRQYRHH", "assay": "KINOMEscan panel screen", "assay_type": "binding", "settings": "read-out: Percent Control(%)"}, "[18]": {"molecular_target": "T18, PIM1 (Homo sapiens, UniProt P11309)", "T18 construct": "purchased DiscoveRx KINOMEscan (Ambit Biosciences)", "assay": "KINOMEscan panel screen", "assay_type": "binding", "settings": "read-out: Percent Control(%)"}, "[19]": {"molecular_target": "T19, PKN1 (Homo sapiens, UniProt Q16512)", "T19 construct": "purchased DiscoveRx KINOMEscan (Ambit Biosciences)", "assay": "KINOMEscan panel screen", "assay_type": "binding", "settings": "read-out: Percent Control(%)"}, "[20]": {"molecular_target": "T20, RET (Homo sapiens, UniProt P07949)", "T20 construct": "purchased DiscoveRx KINOMEscan (Ambit Biosciences)", "assay": "KINOMEscan panel screen", "assay_type": "binding", "settings": "read-out: Percent Control(%)"}, "[21]": {"molecular_target": "T21, RIOK3 (Homo sapiens, UniProt O14730)", "T21 construct": "purchased DiscoveRx KINOMEscan (Ambit Biosciences)", "T21 sequence (O14730 whole entry)": "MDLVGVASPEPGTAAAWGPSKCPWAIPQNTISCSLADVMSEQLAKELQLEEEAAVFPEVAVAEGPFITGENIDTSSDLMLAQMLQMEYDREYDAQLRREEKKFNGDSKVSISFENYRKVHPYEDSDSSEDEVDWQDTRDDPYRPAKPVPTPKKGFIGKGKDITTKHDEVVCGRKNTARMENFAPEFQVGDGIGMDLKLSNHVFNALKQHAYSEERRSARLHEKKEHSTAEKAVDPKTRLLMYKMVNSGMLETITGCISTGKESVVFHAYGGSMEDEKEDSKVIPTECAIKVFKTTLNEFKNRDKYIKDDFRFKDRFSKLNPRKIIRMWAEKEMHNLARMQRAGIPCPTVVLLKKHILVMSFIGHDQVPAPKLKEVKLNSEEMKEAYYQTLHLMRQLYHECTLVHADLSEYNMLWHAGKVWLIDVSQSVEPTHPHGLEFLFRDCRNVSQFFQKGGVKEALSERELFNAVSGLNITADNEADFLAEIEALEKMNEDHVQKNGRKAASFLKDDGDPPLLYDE", "assay": "KINOMEscan panel screen", "assay_type": "binding", "settings": "read-out: Percent Control(%)"}, "[22]": {"molecular_target": "T22, RPS6KA4(Kin.Dom.1-N-terminal) (Homo sapiens, UniProt O75676)", "T22 construct": "RPS6KA4(Kin.Dom.1-N-terminal); purchased DiscoveRx KINOMEscan (Ambit Biosciences)", "T22 sequence (O75676 33-301 limits assumed)": "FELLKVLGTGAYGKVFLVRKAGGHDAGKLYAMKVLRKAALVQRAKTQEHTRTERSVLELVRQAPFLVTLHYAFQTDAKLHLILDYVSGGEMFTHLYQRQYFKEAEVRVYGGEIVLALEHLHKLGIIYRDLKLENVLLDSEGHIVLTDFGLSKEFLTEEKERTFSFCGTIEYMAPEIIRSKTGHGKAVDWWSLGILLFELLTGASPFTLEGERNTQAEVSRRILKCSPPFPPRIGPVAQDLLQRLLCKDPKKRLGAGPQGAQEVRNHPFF", "assay": "KINOMEscan panel screen", "assay_type": "binding", "settings": "read-out: Percent Control(%)"}, "[23]": {"molecular_target": "T23, SBK1 (Homo sapiens, UniProt Q52WX2)", "T23 construct": "purchased DiscoveRx KINOMEscan (Ambit Biosciences)", "T23 sequence (Q52WX2 whole entry)": "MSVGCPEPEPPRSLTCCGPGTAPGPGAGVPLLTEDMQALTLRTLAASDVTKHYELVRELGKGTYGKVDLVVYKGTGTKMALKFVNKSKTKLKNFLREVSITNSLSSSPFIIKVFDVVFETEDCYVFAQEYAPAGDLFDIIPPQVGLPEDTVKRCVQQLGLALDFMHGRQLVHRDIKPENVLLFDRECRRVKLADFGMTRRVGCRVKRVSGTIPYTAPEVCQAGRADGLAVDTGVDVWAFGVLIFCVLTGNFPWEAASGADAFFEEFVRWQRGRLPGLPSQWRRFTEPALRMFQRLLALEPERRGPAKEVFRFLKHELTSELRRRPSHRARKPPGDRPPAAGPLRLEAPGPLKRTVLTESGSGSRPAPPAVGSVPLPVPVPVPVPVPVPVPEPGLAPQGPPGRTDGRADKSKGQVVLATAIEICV", "assay": "KINOMEscan panel screen", "assay_type": "binding", "settings": "read-out: Percent Control(%)"}, "[24]": {"molecular_target": "T24, STK36 (Homo sapiens, UniProt Q9NRP7)", "T24 construct": "purchased DiscoveRx KINOMEscan (Ambit Biosciences)", "assay": "KINOMEscan panel screen", "assay_type": "binding", "settings": "read-out: Percent Control(%)"}, "[25]": {"molecular_target": "T25, TAK1 (Homo sapiens, UniProt O43318)", "T25 construct": "purchased DiscoveRx KINOMEscan (Ambit Biosciences)", "assay": "KINOMEscan panel screen", "assay_type": "binding", "settings": "read-out: Percent Control(%)"}, "[26]": {"molecular_target": "T26, ZAP70 (Homo sapiens, UniProt P43403)", "T26 construct": "purchased DiscoveRx KINOMEscan (Ambit Biosciences)", "T26 sequence (P43403 whole entry)": "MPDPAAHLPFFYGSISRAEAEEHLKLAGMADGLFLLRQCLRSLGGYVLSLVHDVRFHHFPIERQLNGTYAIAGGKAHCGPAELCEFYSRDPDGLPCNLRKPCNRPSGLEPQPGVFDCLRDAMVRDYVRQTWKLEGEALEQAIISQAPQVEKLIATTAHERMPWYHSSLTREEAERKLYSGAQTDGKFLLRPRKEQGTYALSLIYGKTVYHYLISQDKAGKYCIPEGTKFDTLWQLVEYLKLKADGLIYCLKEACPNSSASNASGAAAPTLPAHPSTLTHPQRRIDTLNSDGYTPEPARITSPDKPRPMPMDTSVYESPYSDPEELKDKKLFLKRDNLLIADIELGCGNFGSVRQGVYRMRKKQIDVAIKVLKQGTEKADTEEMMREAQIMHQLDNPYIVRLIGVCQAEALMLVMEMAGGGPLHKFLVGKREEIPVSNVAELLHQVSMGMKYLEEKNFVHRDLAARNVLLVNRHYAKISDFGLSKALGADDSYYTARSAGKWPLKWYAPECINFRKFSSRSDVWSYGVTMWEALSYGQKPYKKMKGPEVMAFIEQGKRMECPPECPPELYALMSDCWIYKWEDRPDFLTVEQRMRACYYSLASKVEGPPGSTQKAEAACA", "assay": "KINOMEscan panel screen", "assay_type": "binding", "settings": "read-out: Percent Control(%)"}, "[27]": {"molecular_target": "ERBB2 (Homo sapiens, UniProt P04626)", "assay": "KINOMEscan kinase binding assay (Kd)"}, "[28]": {"system": "MV4-11 cells", "assay": "Apoptosis assay (AnnexinV/PI staining)", "assay_type": "cell-based, human", "settings": "3 nM", "procedure": "PI staining was used to detect the cell cycle status. […] The induction of apoptosis following treatment of MV4-11 cells was examined by AnnexinV/PI staining assays.\nFlow cytometry was used for cell cycle and apoptosis assays. MV4-11 cells were treated with SKLB-677 for 24 h, and then the cells were harvested and washed with PBS. Cell Cycle and Apoptosis Analysis Kit (Beyotime) was used for cell cycle analysis and the Annexin V-FITC & PI Cell Apoptosis Analysis Kit (KeyGENE BioTECH) was used for apoptosis assays. The data was analyzed using FLOWJO software (V7.6.5).\nFigure 2 SKLB-677 inhibited FLT3 activation and induced cell cycle arrest and apoptosis. (a) MV4-11 cells were treated with various concentrations of SKLB-677 or 0.1% DMSO for 1 h. The phosphorylation levels of FLT3 and downstream signal proteins were assessed using antibodies against total FLT3 (FLT3), phosphorylated Y589/591 FLT3 (p-FLT3), total STAT5 (STAT5), phosphorylated Y694 STAT5 (p-STAT5), total p44/42 MAPK (Erk1/2), and phosphorylated Y202/204 p44/42 MAPK (p-Erk1/2). β-actin was used as a loading control. (b) Primary PBMCs isolated from AML patients (FLT3-ITD positive) were treated with various concentrations of SKLB-677 or 0.1% DMSO for 6 h. The phosphorylation levels of FLT3 and downstream signal proteins were detected used the same method as that in panel a. […]"}, "[29]": {"system": "WM2664", "assay": "MTT cell viability assay", "settings": "Homo sapiens, WM 266-4, 72 h"}, "[30]": {"system": "MDA-MB-231", "assay": "MTT cell viability assay", "settings": "Homo sapiens, MDA-MB-231, 72 h"}}, "data": [{"smiles": "CC(C)(C)c1cc(NC(=O)Nc2ccc(Oc3ncnc4[nH]ncc34)c(F)c2)no1", "note": "[SKLB-677, 1-(4-(1H-pyrazolo[3,4-d]pyrimidin-4-yloxy)-3-fluorophenyl)-3-(5-tert-butylisoxazol-3-yl)urea]", "values": [{"measurement": "remaining binding at 10 µM", "setting": "[1]", "result": 13, "unit": "%"}, {"measurement": "remaining binding at 10 µM", "setting": "[2]", "result": 0.2, "unit": "%"}, {"measurement": "remaining binding at 10 µM", "setting": "[3]", "result": 29, "unit": "%"}, {"measurement": "remaining binding at 10 µM", "setting": "[4]", "result": 3, "unit": "%"}, {"measurement": "remaining binding at 10 µM", "setting": "[5]", "result": 3.3, "unit": "%"}, {"measurement": "remaining binding at 10 µM", "setting": "[6]", "result": 44, "unit": "%"}, {"measurement": "remaining binding at 10 µM", "setting": "[7]", "result": 71, "unit": "%"}, {"measurement": "remaining binding at 10 µM", "setting": "[8]", "result": 38, "unit": "%"}, {"measurement": "remaining binding at 10 µM", "setting": "[9]", "result": 0.1, "unit": "%"}, {"measurement": "remaining binding at 10 µM", "setting": "[10]", "result": 45, "unit": "%"}, {"measurement": "remaining binding at 10 µM", "setting": "[11]", "result": 64, "unit": "%"}, {"measurement": "remaining binding at 10 µM", "setting": "[12]", "result": 0, "unit": "%"}, {"measurement": "remaining binding at 10 µM", "setting": "[13]", "result": 13, "unit": "%"}, {"measurement": "remaining binding at 10 µM", "setting": "[14]", "result": 9.8, "unit": "%"}, {"measurement": "remaining binding at 10 µM", "setting": "[15]", "result": 99, "unit": "%"}, {"measurement": "remaining binding at 10 µM", "setting": "[16]", "result": 33, "unit": "%"}, {"measurement": "remaining binding at 10 µM", "setting": "[17]", "result": 100, "unit": "%"}, {"measurement": "remaining binding at 10 µM", "setting": "[18]", "result": 26, "unit": "%"}, {"measurement": "remaining binding at 10 µM", "setting": "[19]", "result": 82, "unit": "%"}, {"measurement": "remaining binding at 10 µM", "setting": "[20]", "result": 0.05, "unit": "%"}, {"measurement": "remaining binding at 10 µM", "setting": "[21]", "result": 100, "unit": "%"}, {"measurement": "remaining binding at 10 µM", "setting": "[22]", "result": 29, "unit": "%"}, {"measurement": "remaining binding at 10 µM", "setting": "[23]", "result": 80, "unit": "%"}, {"measurement": "remaining binding at 10 µM", "setting": "[24]", "result": 97, "unit": "%"}, {"measurement": "remaining binding at 10 µM", "setting": "[25]", "result": 100, "unit": "%"}, {"measurement": "remaining binding at 10 µM", "setting": "[26]", "result": 100, "unit": "%"}, {"measurement": "Kd", "setting": "[27]", "result": "> 10", "unit": "µM"}, {"measurement": "apoptosis of AML cells", "setting": "[28]", "result": "about 50%"}, {"measurement": "IC50", "setting": "[29]", "result": "> 10", "unit": "µM"}, {"measurement": "IC50", "setting": "[30]", "result": "> 10", "unit": "µM"}]}]}
